Source: PubChem BioAssay AID1845200 (Molecular Pharmacology Branch, DTP, NCI, 2023)

Test system: ASPS-1 complex tumor spheroids, viability
Assay: Anticancer human tumor ASPS-1 cell line growth inhibition;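 note: spheroids exposed to agents for 7 days after 3 days of growth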;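 for viability, T/C: 100% = DMSO vehicle treated spheroids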
Conditions: for IC50: curve of first compound; for viability, T/C: stronger effect = lower value
Outline: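 Single agents and combinations were tested on spheroids built from tumor cells plus HUVEC and hMSC, at half-log dilutions starting at or near clinical Cmax, else 10 microM; final DMSO 0.25% (v/v).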

[1] = second compound 1 µM, first compound 0.00949 µM
[2] = second compound 1 µM, first compound 0.03 µM
[3] = second compound 1 µM, first compound 0.0949 µM
[4] = second compound 1 µM, first compound 0.3 µM
[5] = second compound 1 µM, first compound 0.949 µM
[6] = second compound 1 µM, first compound 3 µM
[7] = second compound 3.16 µM, first compound 0.00949 µM
[8] = second compound 3.16 µM, first compound 0.03 µM
[9] = second compound 3.16 µM, first compound 0.0949 µM
[10] = second compound 3.16 µM, first compound 0.3 µM
[11] = second compound 3.16 µM, first compound 0.949 µM
[12] = second compound 3.16 µM, first compound 3 µM
[13] = second compound 10 µM, first compound 0.00949 µM
[14] = second compound 10 µM, first compound 0.03 µM
[15] = second compound 10 µM, first compound 0.0949 µM
[16] = second compound 10 µM, first compound 0.3 µM
[17] = second compound 10 µM, first compound 0.949 µM
[18] = second compound 10 µM, first compound 3 µM
[19] = second compound 31.6 µM, first compound 0.00949 µM
[20] = second compound 31.6 µM, first compound 0.03 µM
[21] = second compound 31.6 µM, first compound 0.0949 µM
[22] = second compound 31.6 µM, first compound 0.3 µM
[23] = second compound 31.6 µM, first compound 0.949 µM
[24] = second compound 31.6 µM, first compound 3 µM
[25] = second compound 100 µM, first compound 0.00949 µM
[26] = second compound 100 µM, first compound 0.03 µM
[27] = second compound 100 µM, first compound 0.0949 µM
[28] = second compound 100 µM, first compound 0.3 µM
[29] = second compound 100 µM, first compound 0.949 µM
[30] = second compound 100 µM, first compound 3 µM

SMILES | IC50 (second compound 1 µM) | IC50 (second compound 3.16 µM) | IC50 (second compound 10 µM) | IC50 (second compound 31.6 µM) | IC50 (second compound 100 µM) | viability, T/C [1] | viability, T/C [2] | viability, T/C [3] | viability, T/C [4] | viability, T/C [5] | viability, T/C [6] | viability, T/C [7] | viability, T/C [8] | viability, T/C [9] | viability, T/C [10] | viability, T/C [11] | viability, T/C [12] | viability, T/C [13] | viability, T/C [14] | viability, T/C [15] | further results
CNCc1ccc(-c2cc(-c3nc(-c4ccc(S(=O)(=O)C(C)C)cc4)cnc3N)on2)cc1 + Cn1nnc2c(C(N)=O)ncn2c1=O | 565 nM | 738 nM | 259 nM | 292 nM | 184 nM | 104% | 104% | 105% | 72.5% | 31.1% | 7.06% | 109% | 106% | 92.6% | 69.3% | 45.6% | 9.69% | 98.8% | 103% | 87% | viability, T/C [16]: 40%; viability, T/C [17]: 30.4%; viability, T/C [18]: 6.72%; viability, T/C [19]: 88.5%; viability, T/C [20]: 78.9%; viability, T/C [21]: 67.4%; viability, T/C [22]: 48.7%; viability, T/C [23]: 31.2%; viability, T/C [24]: 12.9%; viability, T/C [25]: 79.1%; viability, T/C [26]: 78.4%; viability, T/C [27]: 58.2%; viability, T/C [28]: 41.6%; viability, T/C [29]: 21.7%; viability, T/C [30]: 1.51%
Cc1sc2c(c1C)C(c1ccc(Cl)cc1)=NC(CC(=O)Nc1ccc(O)cc1)c1nnc(C)n1-2 (stereo not given) + Cn1nnc2c(C(N)=O)ncn2c1=O | > 3000 nM | > 3000 nM | > 3000 nM | > 3000 nM | > 3000 nM | 102% | 110% | 114% | 99.4% | 91.6% | 88.6% | 101% | 108% | 111% | 96.7% | 94.9% | 89.9% | 88.7% | 99.6% | 99.1% | viability, T/C [16]: 100%; viability, T/C [17]: 97.5%; viability, T/C [18]: 83.9%; viability, T/C [19]: 94.6%; viability, T/C [20]: 92.3%; viability, T/C [21]: 103%; viability, T/C [22]: 95.6%; viability, T/C [23]: 83.9%; viability, T/C [24]: 80.3%; viability, T/C [25]: 75.9%; viability, T/C [26]: 82.6%; viability, T/C [27]: 84.8%; viability, T/C [28]: 79%; viability, T/C [29]: 70.7%; viability, T/C [30]: 61.2%
